One assay has as its system cancer cell. The assay can be described thus: Cell viability assay (resazurin). The format is cell-based. To be noted: 72 h; 3 days with compound, resazurin fluorescence; cell line not named. Here is the method: The utility of the compounds of the present invention can be illustrated, for example, by their activity in vitro in the cancer cell clonogenic and/or viability assay described below. The link between activity in tumor cell clonogenic assay and anti-tumor activity in the clinical setting has been well established in the art (e.g. see ref Silverstini et al Stem Cells 1993, 11(6), 258-35).
Cells are seeded into 96 well plates (1000-3000 cells/well) in DMEM GlutaMAX™ or other suitable media dependent on cell line and incubated overnight in 5% CO2, 37° C. Thereafter cells are treated with compound or vehicle and left in incubator for 3 days until staining with resazurin. Cells are incubated in resazurin (diluted in suitable media) at 37° C. for 2 hours before measuring the fluorescence (Ex544/Em590).
The compounds to be tested are nano-dispensed in 11 concentrations, directly in 384-well cell plates, with a final DMSO concentration <1%. Cells are seeded in cell plates, pre-dispensed with compounds, 50 μl/well (600-1200 cells/well). After 3 days culture in 5% CO2, 37° C., resazurin diluted in PBS is added, 10 μl/well, and cells are incubated 3 hours before measuring fluorescence (Ex544/Em590).
(In general: The colour change of resazurin is a common sign of viable cells or microbes.)

A further assay has as its target MTH1 (Homo sapiens, UniProt P36639). The assay can be described thus: MTH1 enzymatic assay and IC50 value determination (malachite green, 96- and 384-well format). The class given is biochemical. To be noted: hydrolysis of dGTP (100 μM), MTH1 6 nM, pyrophosphatase-coupled malachite green, 15 minutes at 22° C. In short, it runs like this:
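MTH1 (6 nM) hydrolysed dGTP (100 μM) for 15 min at 22 °C in Tris-acetate buffer with Mg2+, DTT, Tween 20 and excess pyrophosphatase, 1% DMSO. Pi detected with malachite green at 630 nm. IC50 from nonlinear 4-parameter fit of 11–12-point dilution series.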

On to `Cc1cccc(-c2cc(NCCc3ccc(C(N)=O)cc3)nc(N)n2)c1C` [Example 44, 4-(2-{[2-amino-6-(2,3-dimethylphenyl)pyrimidin-4-yl]amino}ethyl)benzamide], for which the IC50 (as a rule, the point on the concentration scale where inhibition reaches its midpoint) is below 500 nM in the assay on cancer cell and below 200 nM on MTH1.
The like results for `CC(=O)Nc1cccc(CCNc2cc(-c3cccc(Cl)c3C)nc(N)n2)c1` [Example 46, N-[3-(2-{[2-amino-6-(3-chloro-2-methylphenyl)pyrimidin-4-yl]amino}ethyl)phenyl]acetamide] were, in that order, below 500 nM and below 200 nM.
`CCOC(=O)Nc1cccc(CCNc2cc(-c3cccc(Cl)c3C)nc(N)n2)c1` [Example 47, ethyl N-[3-(2-{[2-amino-6-(3-chloro-2-methylphenyl)pyrimidin-4-yl]amino}ethyl)phenyl]carbamate]: the IC50 in the assay with cancer cell is below 500 nM; against MTH1, below 200 nM.
Consider `Cc1c(Cl)cccc1-c1cc(NCCc2ccc3c(c2)NC(=O)CO3)nc(N)n1` [Example 48, 6-(2-{[2-amino-6-(3-chloro-2-methylphenyl)pyrimidin-4-yl]amino}ethyl)-3,4-dihydro-2H-1,4-benzoxazin-3-one], for which the IC50 is below 500 nM in the assay with cancer cell and below 200 nM on MTH1.
The like results for `COC(=O)c1cnc(NCCNc2cc(-c3cccc(C)c3C)nc(N)n2)cn1` [Example 49, methyl 5-[(2-{[2-amino-6-(2,3-dimethylphenyl)pyrimidin-4-yl]amino}ethyl)amino]pyrazine-2-carboxylate] were, in that order, below 500 nM and below 200 nM.
The like results for `Cc1c(Cl)cccc1-c1cc(NCCc2cccc(S(C)(=O)=O)c2)nc(N)n1` [Example 52, 6-(3-chloro-2-methylphenyl)-4-N-[2-(3-methanesulfonylphenyl)ethyl]pyrimidine-2,4-diamine] were, in that order, below 500 nM and below 200 nM.
For the compound `Cc1c(Cl)cccc1-c1cc(NCCc2cccc(S(N)(=O)=O)c2)nc(N)n1` [Example 53, 3-(2-{[2-amino-6-(3-chloro-2-methylphenyl)pyrimidin-4-yl]amino}ethyl)benzene-1-sulfonamide], the IC50 is below 500 nM in the assay with cancer cell and below 200 nM on MTH1.
The corresponding values for `Nc1nc(NCCc2cccc(S(N)(=O)=O)c2)cc(-c2cccc(Cl)c2Cl)n1` [Example 54, 3-(2-{[2-amino-6-(2,3-dichlorophenyl)pyrimidin-4-yl]amino}ethyl)benzene-1-sulfonamide] are below 500 nM and below 200 nM.
Turning to `Cc1c(Cl)cccc1-c1cc(NCCOc2ccc(C(N)=O)cn2)nc(N)n1` [Example 55, 6-(2-{[2-amino-6-(3-chloro-2-methylphenyl)pyrimidin-4-yl]amino}ethoxy)pyridine-3-carboxamide], the results for the IC50 in the assay with cancer cell and against MTH1 were below 500 nM and below 200 nM, respectively.
As to `Cc1c(Cl)cccc1-c1cc(NCCNc2ccc3c(c2)NC(=O)C(C)(C)O3)nc(N)n1` [Example 56, 6-[(2-{[2-amino-6-(3-chloro-2-methylphenyl)pyrimidin-4-yl]amino}ethyl)amino]-2,2-dimethyl-3,4-dihydro-2H-1,4-benzoxazin-3-one], the IC50 was below 500 nM with cancer cell and below 200 nM at MTH1.
The corresponding values for `Cc1c(Cl)cccc1-c1cc(NCCOc2nccc(C(N)=O)n2)nc(N)n1` [Example 57, 2-(2-{[2-amino-6-(3-chloro-2-methylphenyl)pyrimidin-4-yl]amino}ethoxy)pyrimidine-4-carboxamide] are below 500 nM and below 200 nM.
Take `Cc1c(Cl)cccc1-c1cc(NCCc2ccc(NC(=O)C(C)(C)C)cc2)nc(N)n1` [Example 59, N-[4-(2-{[2-amino-6-(3-chloro-2-methylphenyl)pyrimidin-4-yl]amino}ethyl)phenyl]-2,2-dimethylpropanamide]: the IC50 in the assay with cancer cell is below 500 nM; at MTH1, below 200 nM.
The corresponding values for `Cc1c(Cl)cccc1-c1cc(NCCc2ccc(NS(=O)(=O)CC(F)(F)F)cc2)nc(N)n1` [Example 60, N-[4-(2-{[2-amino-6-(3-chloro-2-methylphenyl)pyrimidin-4-yl]amino}ethyl)phenyl]-2,2,2-trifluoroethane-1-sulfonamide] are below 500 nM and below 200 nM.
The corresponding values for `Cc1c(Cl)cccc1-c1cc(NCCc2ccc(NC(=O)NC(C)C)cc2)nc(N)n1` [Example 61, 1-[4-(2-{[2-amino-6-(3-chloro-2-methylphenyl)pyrimidin-4-yl]amino}ethyl)phenyl]-3-(propan-2-yl)urea] are below 500 nM and below 200 nM.
Regarding `Cc1c(Cl)cccc1-c1cc(NCCc2ccc(NC(=O)OC(C)(C)C)cc2)nc(N)n1` [Example 62, tert-butyl N-[4-(2-{[2-amino-6-(3-chloro-2-methylphenyl)pyrimidin-4-yl]amino}ethyl)phenyl]carbamate], the IC50 with cancer cell is below 500 nM; against MTH1, below 200 nM.
The like results for `CCS(=O)(=O)Nc1ccc(CCNc2cc(-c3cccc(Cl)c3C)nc(N)n2)cc1` [Example 64, N-[4-(2-{[2-amino-6-(3-chloro-2-methylphenyl)pyrimidin-4-yl]amino}ethyl)phenyl]ethane-1-sulfonamide] were, in that order, below 500 nM and below 200 nM.
The corresponding values for `Cc1cc(C)c(-c2cc(NCCc3ccc(S(N)(=O)=O)cc3)nc(N)n2)cc1C` [Example 65, 4-(2-{[2-amino-6-(2,4,5-trimethylphenyl)pyrimidin-4-yl]amino}ethyl)benzene-1-sulfonamide] are below 500 nM and below 200 nM.
Take `COc1cc(C)c(-c2cc(NCCc3ccc(S(N)(=O)=O)cc3)nc(N)n2)cc1C` [Example 66, 4-(2-{[2-amino-6-(4-methoxy-2,5-dimethylphenyl)pyrimidin-4-yl]amino}ethyl)benzene-1-sulfonamide]: the IC50 in the assay with cancer cell was below 500 nM; against MTH1, below 200 nM.
In the case of `Cc1ccc(C)c(-c2cc(NCCc3ccc(S(N)(=O)=O)cc3)nc(N)n2)c1` [Example 70, 4-(2-{[2-amino-6-(2,5-dimethylphenyl)pyrimidin-4-yl]amino}ethyl)benzene-1-sulfonamide], the IC50 with cancer cell is below 500 nM; at MTH1, below 200 nM.
The corresponding values for `Cc1c(-c2cc(NCCc3ccc(S(N)(=O)=O)cc3)nc(N)n2)cc(Cl)c(Cl)c1Cl` [Example 72, 4-(2-{[2-amino-6-(3,4,5-trichloro-2-methylphenyl)pyrimidin-4-yl]amino}ethyl)benzene-1-sulfonamide] are below 500 nM and below 200 nM.
Consider `Cc1cc(Cl)cc(-c2cc(NCCc3ccc(S(N)(=O)=O)cc3)nc(N)n2)c1F` [Example 73, 4-(2-{[2-amino-6-(5-chloro-2-fluoro-3-methylphenyl)pyrimidin-4-yl]amino}ethyl)benzene-1-sulfonamide], for which the IC50 with cancer cell was below 500 nM; at MTH1, below 200 nM.
The corresponding values for `Cc1c(Cl)cc(Cl)cc1-c1cc(NCCc2ccc(S(N)(=O)=O)cc2)nc(N)n1` [Example 74, 4-(2-{[2-amino-6-(3,5-dichloro-2-methylphenyl)pyrimidin-4-yl]amino}ethyl)benzene-1-sulfonamide] are below 500 nM and below 200 nM.
The like results for `Cc1c(-c2cc(NCCc3ccc(C(N)=O)cc3)nc(N)n2)cc(Cl)c(Cl)c1Cl` [Example 75, 4-(2-{[2-amino-6-(3,4,5-trichloro-2-methylphenyl)pyrimidin-4-yl]amino}ethyl)benzamide] were, in that order, below 500 nM and below 200 nM.
The corresponding values for `Cc1c(Cl)cc(Cl)cc1-c1cc(NCCc2ccc(C(N)=O)cc2)nc(N)n1` [Example 76, 4-(2-{[2-amino-6-(3,5-dichloro-2-methylphenyl)pyrimidin-4-yl]amino}ethyl)benzamide] are below 500 nM and below 200 nM.
On to `Cc1c(F)ccc(-c2cc(NCCc3ccc(C(N)=O)cc3)nc(N)n2)c1C` [Example 77, 4-(2-{[2-amino-6-(4-fluoro-2,3-dimethylphenyl)pyrimidin-4-yl]amino}ethyl)benzamide], for which the IC50 in the assay on cancer cell is below 500 nM; on MTH1, below 200 nM.
As for `Cc1c(-c2cc(NCCc3ccc(C(N)=O)cc3)nc(N)n2)ccc(Cl)c1Cl` [Example 78, 4-(2-{[2-amino-6-(3,4-dichloro-2-methylphenyl)pyrimidin-4-yl]amino}ethyl)benzamide], the values for the IC50 with cancer cell and against MTH1 were below 500 nM and below 200 nM, respectively.
For `Cc1cc(Cl)cc(-c2cc(NCCc3ccc(C(N)=O)cc3)nc(N)n2)c1F` [Example 79, 4-(2-{[2-amino-6-(5-chloro-2-fluoro-3-methylphenyl)pyrimidin-4-yl]amino}ethyl)benzamide], the IC50 is below 500 nM in the assay on cancer cell and below 200 nM at MTH1.
The like results for `Cc1c(Cl)cccc1-c1cc(NCCc2cccc(NC(=O)C(C)(C)C)c2)nc(N)n1` [Example 81, N-[3-(2-{[2-amino-6-(3-chloro-2-methylphenyl)pyrimidin-4-yl]amino}ethyl)phenyl]-2,2-dimethylpropanamide] were, in that order, below 500 nM and below 200 nM.

These data come from patent publication US10179790B2 (THOMAS HELLEDAYS STIFTELSE FOR MEDICINSK FORSKNING, priority 2014, dated 2019).
